Measured values as given in patent US20250019377A1 (JACOBIO PHARMACEUTICALS CO., LTD, priority 2021, published 2025).

Key:
[1] = test system: p-ERK in AGS cells (K-Ras G12D); test: Phospho-ERK1/2(THR202/TYR204) HTRF assay, AGS; type: cell-based; settings: Homo sapiens, 2 h, 2 hours incubation
[2] = test system: p-ERK in SW620 cells (K-Ras G12V); test: Phospho-ERK1/2(THR202/TYR204) HTRF assay, SW620; type: cell-based; settings: Homo sapiens, SW-620, 2 h, 2 hours incubation
K-Ras G12V [3] = molecular target: T1, K-Ras G12V (Homo sapiens, UniProt P01116, G12V); test: biochemical
SW620 cells (K-Ras G12V) = test: 2D cell growth inhibition assay, SW620; type: cell-based; settings: Homo sapiens, SW-620, 144 h, 6 days, absolute IC50
K-Ras G12V [4] = molecular target: T1, K-Ras G12V; test: SOS1 catalyzed nucleotide exchange assay (GDP form K-Ras), K-Ras G12V; settings: read-out: K-Ras G12V GDP Biochemical Activity (IC50)
AGS cells (K-Ras G12D) = test: 2D cell growth inhibition assay, AGS; type: cell-based; settings: Homo sapiens, 144 h, 6 days, absolute IC50
[5] = test system: AsPC-1 cells (K-Ras G12D); test: 2D cell growth inhibition assay, AsPC-1; type: cell-based; settings: Homo sapiens, ASPC1, 144 h, AsPC-1, K-Ras G12D, 6 days, absolute IC50

T1 sequence (P01116 1-169 isoform P01116-2 G12V): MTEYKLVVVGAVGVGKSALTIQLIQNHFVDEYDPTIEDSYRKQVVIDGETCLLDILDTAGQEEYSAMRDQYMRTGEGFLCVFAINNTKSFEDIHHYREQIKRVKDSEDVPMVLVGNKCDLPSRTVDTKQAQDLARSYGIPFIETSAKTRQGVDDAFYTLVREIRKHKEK

| SMILES | IC50 [1] | IC50 [2] | IC50 (K-Ras G12V [3]) | IC50 (SW620 cells (K-Ras G12V)) | IC50 (K-Ras G12V [4]) | IC50 (AGS cells (K-Ras G12D)) | IC50 [5] |
| --- | --- | --- | --- | --- | --- | --- | --- |
| C#Cc1c(F)ccc2cc(O)cc(-c3nc(C4CC4)c4c(N5CCCOCC5)nc(OC[C@@]56CCCN5C[C@H](F)C6)nc4c3F)c12 [Compound 35, 4-(5-cyclopropyl-8-fluoro-2-(((2R,7aS)-2-fluorotetrahydro-1H-pyrrolizin-7a(5H)-yl)methoxy)-4-(1,4-oxazepan-4-yl)pyrido[4,3-d]pyrimidin-7-yl)-5-ethynyl-6-fluoronaphthalen-2-ol trifluoroacetic acid] | 1.42 nM | 11.9 nM | 22.1 nM | 9.2 nM | 5.81 nM | 5.63 nM | 88.5 nM |
| C#Cc1c(F)c(F)cc2cc(O)cc(-c3ncc4c(N5CCCOCC5)nc(OC[C@@]56CCCN5C[C@H](F)C6)nc4c3F)c12 [Compound 29] | 3.3 nM | 7.74 nM | – | 4.62 nM | – | 8.22 nM | 53.6 nM |
| C#Cc1c(F)ccc2cc(O)cc(-c3ncc4c(N5CCOCC(=C)C5)nc(OC[C@@]56CCCN5C[C@H](F)C6)nc4c3F)c12 [Compound 24, 5-ethynyl-6-fluoro-4-(8-fluoro-2-(((2R,7aS)-2-fluorotetrahydro-1H-pyrrolizin-7a(5H)-yl)methoxy)-4-(6-methylene-1,4-oxazepan-4-yl)pyrido[4,3-d]pyrimidin-7-yl)naphthalen-2-ol] | 23.1 nM | 4.39 nM | – | 15.3 nM | – | 42.4 nM | 381 nM |
| C#Cc1c(F)ccc2cc(O)cc(-c3ncc4c(N5CCCOCC5)nc(OCC56CCCN5CC(F)(F)C6)nc4c3F)c12 (stereo not shown) [Compound 9, 4-(2-((2,2-difluorotetrahydro-1H-pyrrolizin-7a(5H)-yl)methoxy)-8-fluoro-4-(1,4-oxazepan-4-yl)pyrido[4,3-d]pyrimidin-7-yl)-5-ethynyl-6-fluoronaphthalen-2-ol] | 66.2 nM | 15.4 nM | – | 171 nM | – | 186 nM | 586 nM |
| C#Cc1c(F)ccc2cc(O)cc(-c3ncc4c(N5CCOCCC56CC6)nc(OC[C@@]56CCCN5C[C@H](F)C6)nc4c3F)c12 [Compound 43, 5-ethynyl-6-fluoro-4-(8-fluoro-2-(((2R,7aS)-2-fluorotetrahydro-1H-pyrrolizin-7a(5H)-yl)methoxy)-4-(7-oxa-4-azaspiro[2.6]nonan-4-yl)pyrido[4,3-d]pyrimidin-7-yl)naphthalen-2-ol trifluoroacetic acid] | 101 nM | 21.8 nM | – | 76.3 nM | – | 248 nM | 1850 nM |
| C#Cc1c(F)ccc2cc(O)cc(-c3ncc4c(N5CCCOCC56CC6)nc(OC[C@@]56CCCN5C[C@H](F)C6)nc4c3F)c12 [Compound 50, 5-ethynyl-6-fluoro-4-(8-fluoro-2-(((2R,7aS)-2-fluorotetrahydro-1H-pyrrolizin-7a(5H)-yl)methoxy)-4-(8-oxa-4-azaspiro[2.6]nonan-4-yl)pyrido[4,3-d]pyrimidin-7-yl)naphthalen-2-ol trifluoroacetic acid] | – | 121 nM | – | – | – | – | – |
| C#Cc1c(F)ccc2cc(O)cc(-c3ncc4c(N5CCOCC(=O)C5)nc(OC[C@@]56CCCN5C[C@H](F)C6)nc4c3F)c12 [Compound 30, 4-(7-(8-ethynyl-7-fluoro-3-hydroxynaphthalen-1-yl)-8-fluoro-2-(((2R,7aS)-2-fluorotetrahydro-1H-pyrrolizin-7a(5H)-yl)methoxy)pyrido[4,3-d]pyrimidin-4-yl)-1,4-oxazepan-6-one trifluoroacetic acid] | 2.04 nM | 3.97 nM | – | – | – | – | – |
| C#Cc1c(F)ccc2cc(O)cc(-c3ncc4c(N5[C@H]6COC[C@H](C)[C@@H]5C6)nc(OC[C@@]56CCCN5C[C@H](F)C6)nc4c3F)c12 [Compound 110, 5-ethynyl-6-fluoro-4-(8-fluoro-2-(((2R,7aS)-2-fluorotetrahydro-1H-pyrrolizin-7a(5H)-yl)methoxy)-4-((1R,5R,6S)-5-methyl-3-oxa-7-azabicyclo[4.1.1]octan-7-yl)pyrido [4,3-d]pyrimidin-7-yl)naphthalen-2-ol] | 44.3 nM | 62.2 nM | > 1000 nM | 81 nM | 6.63 nM | – | – |
| C#Cc1c(F)ccc2cc(O)cc(-c3ncc4c(N5CCCOCC5)nc(OC[C@H]5CCCN5C)nc4c3F)c12 [Compound 2, (R)-5-ethynyl-6-fluoro-4-(8-fluoro-2-((1-methylpyrrolidin-2-yl)methoxy)-4-(1,4-oxazepan-4-yl)pyrido[4,3-d]pyrimidin-7-yl)naphthalen-2-ol] | – | – | 207 nM | 182 nM | 4.99 nM | 178 nM | 293 nM |
| C#Cc1cccc2cc(O)cc(-c3ncc4c(N5CCCOCC5)nc(OC[C@@]56CCCN5C[C@H](F)C6)nc4c3F)c12 [Compound 82] | 2.93 nM | 13.8 nM | – | 116 nM | – | 15.5 nM | 226 nM |
| C#Cc1c(F)ccc2cc(O)cc(-c3ncc4c(N5CCCO[C@H]6C[C@H]65)nc(OC[C@@]56CCCN5C[C@H](F)C6)nc4c3F)c12 (single isomer, unassigned) [Compound 7A] | – | – | – | 846 nM | – | 175 nM | 1510 nM |

Now from value to compound:

| IC50 [1] | IC50 [2] | IC50 (K-Ras G12V [3]) | IC50 (SW620 cells (K-Ras G12V)) | IC50 (K-Ras G12V [4]) | IC50 (AGS cells (K-Ras G12D)) | IC50 [5] | SMILES |
| --- | --- | --- | --- | --- | --- | --- | --- |
| 192 nM | 47.1 nM | – | – | – | – | – | C#Cc1c(F)ccc2cc(O)cc(-c3ncc4c(N5CCOCC(C)(C)C5)nc(OC[C@@]56CCCN5C[C@H](F)C6)nc4c3F)c12 [Compound 102, 4-(4-(6,6-dimethyl-1,4-oxazepan-4-yl)-8-fluoro-2-(((2R,7aS)-2-fluorotetrahydro-1H-pyrrolizin-7a(5H)-yl)methoxy)pyrido[4,3-d]pyrimidin-7-yl)-5-ethynyl-6-fluoro-naphthalen-2-ol] |
| 23 nM | 34.8 nM | 378 nM | 104 nM | 2.08 nM | 53.6 nM | 326 nM | C#Cc1c(F)ccc2cc(O)cc(-c3ncc4c(N5CC(F)(F)COCC5C)nc(OC[C@@]56CCCN5C[C@H](F)C6)nc4c3F)c12 (stereo partly drawn) [Compound 105, 4-(4-(6,6-difluoro-3-methyl-1,4-oxazepan-4-yl)-8-fluoro-2-(((2R,7aS)-2-fluorotetra-hydro-1H-pyrrolizin-7a(5H)-yl)methoxy)pyrido[4,3-d]pyrimidin-7-yl)-5-ethynyl-6-fluoronaphthalen-2-ol] |
| 66.1 nM | 40.2 nM | – | 185 nM | – | 504 nM | 885 nM | C#Cc1c(F)ccc2c(F)c(O)cc(-c3ncc4c(N5CCCOCC5)nc(OC[C@@]56CCCN5C[C@H](F)C6)nc4c3F)c12 [Compound 107, 5-ethynyl-1,6-difluoro-4-(8-fluoro-2-(((2R,7aS)-2-fluorotetrahydro-1H-pyrrolizin-7a(5H)-yl)methoxy)-4-(1,4-oxazepan-4-yl)pyrido[4,3-d]pyrimidin-7-yl)naphthalen-2-ol] |
| 1.5 nM | 5.98 nM | – | 27.2 nM | – | 3.41 nM | 32.8 nM | C#Cc1c(F)ccc2cc(O)cc(-c3ncc4c(N5CCOCC(COC)C5)nc(OC[C@@]56CCCN5C[C@H](F)C6)nc4c3F)c12 (stereo partly shown) [Compound 87] |
| – | 187 nM | – | 109 nM | – | – | – | C#Cc1c(F)ccc2cc(O)cc(-c3ncc4c(N5CCOCC6(CC6)C5)nc(OC[C@@]56CCCN5C[C@H](F)C6)nc4c3F)c12 [Compound 103, 5-ethynyl-6-fluoro-4-(8-fluoro-2-(((2R,7aS)-2-fluorotetrahydro-1H-pyrrolizin-7a(5H)-yl)methoxy)-4-(5-oxa-8-azaspiro[2.6]nonan-8-yl)pyrido[4,3-d]pyrimidin-7-yl) naphthalen-2-ol] |
| 39.4 nM | 21.5 nM | – | 66.4 nM | – | 98.1 nM | 681 nM | C#Cc1c(F)ccc2cc(O)cc(-c3ncc4c(N5CC(OC)COCC5C)nc(OC[C@@]56CCCN5C[C@H](F)C6)nc4c3F)c12 (stereo partly drawn) [Compound 106, 5-ethynyl-6-fluoro-4-(8-fluoro-2-(((2R,7aS)-2-fluorotetrahydro-1H-pyrrolizin-7a(5H)-yl)methoxy)-4-(6-methoxy-3-methyl-1,4-oxazepan-4-yl)pyrido[4,3-d]pyrimidin-7-yl)naphthalen-2-ol] |
| 46.5 nM | 27.9 nM | – | 163 nM | – | 133 nM | 237 nM | C#Cc1c(F)ccc2cccc(-c3ncc4c(N5CCCOC6CC65)nc(OC[C@@]56CCCN5C[C@H](F)C6)nc4c3F)c12 (stereo partly drawn) [Compound 115, 6-(7-(8-ethynyl-7-fluoronaphthalen-1-yl)-8-fluoro-2-(((2R,7aS)-2-fluorotetrahydro-1H-pyrrolizin-7a(5H)-yl)methoxy)pyrido [4,3-d]pyrimidin-4-yl)-2-oxa-6-azabicyclo [5.1.0]octane] |
| 113 nM | 110 nM | – | 343 nM | – | 184 nM | 1420 nM | Oc1cc(-c2ncc3c(N4CCCOCC4)nc(OC[C@@]45CCCN4C[C@H](F)C5)nc3c2F)c2ccccc2c1 [Compound 118, 4-(8-fluoro-2-(((2R,7aS)-2-fluorotetrahydro-1H-pyrrolizin-7a(5H)-yl)methoxy)-4-(1,4-oxazepan-4-yl)pyrido[4,3-d]pyrimidin-7-yl)naphthalen-2-ol] |
| – | 275 nM | – | – | – | – | – | C#Cc1c(F)ccc2cc(O)cc(-c3ncc4c(N5CC6COCC5C6)nc(OC[C@@]56CCCN5C[C@H](F)C6)nc4c3F)c12 (stereo partly drawn) [Compound 94, 4-(4-(3-oxa-6-azabicyclo[3.2.1]octan-6-yl)-8-fluoro-2-(((2R,7aS)-2-fluorotetrahydro-1H-pyrrolizin-7a(5H)-yl)methoxy)pyrido [4,3-d]pyrimidin-7-yl)-5-ethynyl-6-fluoro naphthalen-2-ol] |
